These results are taken from the OPERA property sets (Mansouri et al. 2018).

As a reminder, the logP is the decadic logarithm of the partition coefficient of the neutral form, usually between octanol and water. Read a low logP as lower lipophilicity. The molecule `Cc1nc(-c2ccc(C(C)C(=O)O)cc2F)sc1C` (stereo unspecified) gave a lipophilicity (logP) of 3.74.

As for `CC(C)c1csc(-c2ccc(C(C)C(=O)O)cc2)n1` (stereo unspecified), the logP came to 4.29.

On to `CC(C(=O)O)c1ccc(-c2nccs2)c(O)c1` (stereo unspecified), for which the logP was 3.18. With `CC(C(=O)O)c1ccc(-c2nccs2)c(Br)c1` (stereo unspecified) the figure was 3.35; with `Cc1nc(-c2ccc(C(C)C(=O)O)cc2Cl)sc1C` (stereo unspecified), 3.94; with `Cc1cc(C(C)C(=O)O)ccc1-c1nccs1` (stereo unspecified), 3.06. In turn, `CCc1csc(-c2ccc(C(C)C(=O)O)cc2F)n1` (stereo unspecified) displayed a logP of 4.16. The molecule `CCc1nc(-c2ccc(C(C)C(=O)O)cc2F)sc1C` (stereo unspecified) showed a logP of 4.44. With `CC(C(=O)O)c1ccc(-c2nc(CO)cs2)cc1` (stereo unspecified) the figure was 2.25. The molecule `Cc1nc(-c2ccc(C(C)C(=O)O)cc2)sc1C` (stereo unspecified) had a logP of 3.36. In turn, `CC(C(=O)O)c1ccc(-c2nc(C(N)=O)cs2)cc1` (stereo unspecified) displayed a logP of 2.17. With `Cc1csc(-c2ccc(C(C)C(=O)O)cc2Cl)n1` (stereo unspecified) the figure was 3.65; with `CC(C(=O)O)c1ccc(-c2nccs2)c(Cl)c1` (stereo unspecified), 3.39. With `CCc1csc(-c2ccc(C(C)C(=O)O)cc2Cl)n1` (stereo unspecified) the figure was 4.28; with `CC(C(=O)O)c1ccc(-c2nc(C(=O)N(C)C)cs2)cc1` (stereo unspecified), 2.15. As for `CC(C)c1csc(-c2ccc(C(C)C(=O)O)cc2F)n1` (stereo unspecified), the logP was found to be 4.62. With `CSc1cc(C(C)C(=O)O)ccc1-c1nccs1` (stereo unspecified) the figure was 3.02; with `CCc1cnc(-c2ccc(C(C)C(=O)O)cc2)s1` (stereo unspecified), 3.72; with `COc1cc(C(C)C(=O)O)ccc1-c1nccs1` (stereo unspecified), 2.47.

`CCCCc1csc(-c2ccc(C(C)C(=O)O)cc2)n1` (stereo unspecified) registered a lipophilicity (logP) of 4.83. With `CC(C(=O)O)c1ccc(-c2nccs2)c(N)c1` (stereo unspecified) the figure was 2.45; with `C=CCc1csc(-c2ccc(C(C)C(=O)O)cc2)n1` (stereo unspecified), 4.11; with `Cc1csc(-c2ccc(C(C)C(=O)O)cc2)n1` (stereo unspecified), 3.03.

For `CC(=O)c1csc(-c2ccc(C(C)C(=O)O)cc2)n1` (stereo unspecified), the logP is 2.65. To `COCc1csc(-c2ccc(C(C)C(=O)O)cc2)n1` (stereo unspecified) belongs 2.56; to `CCCCc1csc(-c2ccc(C(C)C(=O)O)cc2F)n1` (stereo unspecified), 5.24.

As for `CCc1nc(-c2ccc(C(C)C(=O)O)cc2Cl)sc1C` (stereo unspecified), the logP came out at 4.62. To `CC(C(=O)O)c1ccc(-c2nc(C(F)(F)F)cs2)cc1` (stereo unspecified) belongs 3.78; to `C=Cc1csc(-c2ccc(C(C)C(=O)O)cc2)n1` (stereo unspecified), 3.62; to `Cc1cnc(-c2ccc(C(C)C(=O)O)cc2)s1` (stereo unspecified), 3.15.

On to `CCc1nc(-c2ccc(C(C)C(=O)O)cc2)sc1C` (stereo unspecified), for which the logP was 3.99. `CCc1csc(-c2ccc(C(C)C(=O)O)cc2)n1` (stereo unspecified) yielded a logP of 3.75. Molecule `CC(C(=O)O)c1ccc(-c2nccs2)c(C(F)(F)F)c1` (stereo unspecified) yielded a logP of 3.06.

`CC(C(=O)O)c1ccc(-c2nc3c(s2)CCCC3)cc1` (stereo unspecified): the logP is 4.41. With `CCCCc1csc(-c2ccc(C(C)C(=O)O)cc2Cl)n1` (stereo unspecified) the figure was 5.36. On to `Cc1cnc(-c2ccc(C(C)C(=O)O)cc2Cl)s1` (stereo unspecified), for which the logP worked out at 3.66. To `CC(C(=O)O)c1ccc(-c2nccs2)c([N+](=O)[O-])c1` (stereo unspecified) belongs 2.06; to `CC(C(=O)O)c1ccc(-c2nc(-c3ccccc3)cs2)cc1` (stereo unspecified), 4.95; to `Cc1csc(-c2ccc(C(C)C(=O)O)cc2F)n1` (stereo unspecified), 3.52. For the molecule `CC(C(=O)O)c1ccc(-c2nccs2)c(F)c1` (stereo unspecified), the logP came out at 3.14. With `CCc1cnc(-c2ccc(C(C)C(=O)O)cc2Cl)s1` (stereo unspecified) the figure was 4.39; with `CC(C)c1csc(-c2ccc(C(C)C(=O)O)cc2Cl)n1` (stereo unspecified), 4.78. With `CC(C(=O)O)c1ccc(-c2nccs2)cc1` (stereo unspecified) the figure was 2.79; with `CNC(=O)c1csc(-c2ccc(C(C)C(=O)O)cc2)n1` (stereo unspecified), 2.45; with `Cc1cnc(-c2ccc(C(C)C(=O)O)cc2F)s1` (stereo unspecified), 3.55. With `CCc1cnc(-c2ccc(C(C)C(=O)O)cc2F)s1` (stereo unspecified), the logP was determined as 4.1.
